Assays:
PBPs [1] = test: Gel-based analysis of PBP labeling by β-lactone probes in S. pneumoniae cells; format: cell-based; conditions: S. pneumoniae whole cells, probe 5 μg/ml, 20 min
Protocol: Strain IU1945, an unencapsulated derivative of serotype 2 S. pneumoniae strain D39, was grown statically in brain heart infusion (BHI) medium in 100×17 mm tubes by incubation in an atmosphere of 5% CO2 at 37° C. to an OD620 of ˜0.2. For labeling experiments, overnight cultures that were still in exponential phase (OD620=0.1-0.4) were diluted to OD620=0.002-0.004 and grown as above. Samples with OD620=0.15-0.20 were utilized in labeling experiments conducted as previously described (Kocaoglu, O, et al. (2013) Curr Protoc Chem Biol 5, 239), and summarized as follows: Cell pellets from 1.5 ml of S. pneumoniae cultures were harvested by centrifugation (16,100×g for 2 min at RT) and washed with phosphate buffered saline (PBS; pH 7.4). […] The protein concentration was measured by NanoDrop 1000 Spectrophotometer (Thermo Scientific) or NanoPhotometer P330 (IMPLEN). […] The protein bands were separated by gel electrophoresis for 1.5 h at 180 V, 400 mA, 60 W. The gel was rinsed with distilled water three times before fluorescence scanning. […]
(§1) After SDS-PAGE, labeled proteins were visualized at 50-μm resolution in gels using a Typhoon 9210 gel scanner (Amersham Biosciences) with 580-nm bandpass filter for TAMRA, 526-nm short-pass filter for fluorescein and BODIPY FL, and 670-nm bandpass filter for BODIPY 650/665. All gel images were analyzed using ImageJ software (National Institutes of Health). […]

PBPs [2] = test: Gel-based analysis of β-lactone probes applied to Bacillus subtilis PY79 cells; format: cell-based; conditions: B. subtilis PY79 cells, probe 5 μg/ml
Protocol: Bacillus subtilis strain PY79, was grown in Luria Bertani (LB) medium in 100×17 mm tubes by incubation at 37° C., shaking at 200 rpm. For labeling experiments, overnight cultures were diluted to OD600=0.01-0.05 and grown as above. Samples with OD600=0.35-0.40 were utilized in labeling experiments conducted as previously described (Kocaoglu, O, et al. (2013) Curr Protoc Chem Biol 5, 239), and summarized as follows: Cell pellets from 1.0 ml of B. subtilis cultures were harvested by centrifugation (8,000×g for 2 min at RT) and washed with phosphate buffered saline (PBS; pH 7.4). […] The protein concentration was measured by NanoDrop 1000 Spectrophotometer (Thermo Scientific) or NanoPhotometer P330 (IMPLEN). […] The protein bands were separated by gel electrophoresis for 1.5 h at 180 V, 400 mA, 60 W. The gel was rinsed with distilled water three times before fluorescence scanning (method description for FIGS. 10a and 10b). […]
as §1

| Substance | PBPs labeled (gel-based labeling profile) (PBPs [1]) | PBPs labeled (gel-based labeling profile) (PBPs [2]) |
| --- | --- | --- |
| (2S,3R)-β-lactone-L-Phe-fluorescein [Probe 7FL] | only PBP1b and PBP2x | comparable to the TAMRA probes |
| (2S, 3R)-β-lactone-D-Phe-TAMRA [Probe 8T] | PBP1b, PBP2x and PBP2b | PBP1, PBP2b and PBP5 |
